In brackets after ≈: the same amount, converted by molar mass.
Key:
Format in all cases: functional, cell-based
A549 = assay: Antitumor activity against human lung adenocarcinoma A549 cell line
CNE = assay: Antitumor activity against human nasopharyngeal carcinoma CNE cell line
MCF7 = assay: Antitumor activity against human breast adenocarcinoma MCF7 cell line
HeLa = assay: Antitumor activity against human cervical carcinoma HeLa cell line
[1] = Homo sapiens, A549, read-out: IC50
[2] = Homo sapiens, CNE, read-out: IC50
[3] = Homo sapiens, MCF7, read-out: IC50
[4] = Homo sapiens, HeLa, read-out: IC50

Question: How did the IC50 (A549; [1]) turn out when `CC1(C)CCC[C@]2(C)c3cc(OCc4ccccc4F)c(O)cc3CC[C@H]12` was run?
Answer: The IC50 was 13.7 µg/mL (≈ 37.2 µM).

Question: And the IC50 (CNE; [2])?
Answer: The IC50 was 7.2 µg/mL (≈ 19.5 µM).

Question: What about the IC50 (MCF7; [3]) of the same molecule?
Answer: Its IC50 is 12.4 µg/mL (≈ 33.7 µM).

Question: And the IC50 (HeLa; [4])?
Answer: Its IC50 is 15.3 µg/mL (≈ 41.5 µM).

Question: What does the source list for `CC1(C)CCC[C@]2(C)c3cc(O)c(OCc4cccc([N+](=O)[O-])c4)cc3CC[C@H]12`?
Answer: IC50 (A549; [1]): > 50 µg/mL; IC50 (CNE; [2]): > 50 µg/mL; IC50 (MCF7; [3]): > 50 µg/mL; IC50 (HeLa; [4]): 18.6 µg/mL (≈ 47 µM)

Question: With `CC1(C)CCC[C@]2(C)c3cc(OCc4ccccc4F)c(O)cc3CC[C@@H]12` as the molecule, how does the IC50 (A549; [1]) read?
Answer: Its IC50 is greater than 50 µg/mL.

Question: And the IC50 (CNE; [2])?
Answer: Its IC50 is greater than 50 µg/mL.

Question: What about the IC50 (MCF7; [3]) of the same molecule?
Answer: The IC50 was greater than 50 µg/mL.

Question: And the IC50 (HeLa; [4])?
Answer: Its IC50 is greater than 50 µg/mL.

Question: For `CC1(C)CCC[C@]2(C)c3cc(O)c(OCc4ccc(Cl)cc4)cc3CC[C@H]12`, which IC50 (A549; [1]) is on record?
Answer: The IC50 was greater than 50 µg/mL.

Question: And the IC50 (CNE; [2])?
Answer: The IC50 was greater than 50 µg/mL.

Question: And the IC50 (MCF7; [3])?
Answer: Its IC50 is greater than 50 µg/mL.

Question: What about the IC50 (HeLa; [4]) of the same molecule?
Answer: The IC50 was greater than 50 µg/mL.

Question: What does the source list for `COc1cc2c(cc1OC)[C@@]1(C)CCCC(C)(C)[C@H]1CC2=O`?
Answer: IC50 (A549; [1]): 26.3 µg/mL (≈ 87 µM); IC50 (CNE; [2]): 3.1 µg/mL (≈ 10.3 µM); IC50 (MCF7; [3]): 7.8 µg/mL (≈ 25.8 µM); IC50 (HeLa; [4]): 12.7 µg/mL (≈ 42 µM)

Question: What does the source list for `CC1(C)CCC[C@]2(C)c3cc(O)c(O)cc3CC[C@H]12`?
Answer: IC50 (A549; [1]): 5.7 µg/mL (≈ 21.9 µM); IC50 (CNE; [2]): 3.6 µg/mL (≈ 13.8 µM); IC50 (MCF7; [3]): 9.6 µg/mL (≈ 36.9 µM); IC50 (HeLa; [4]): 10.9 µg/mL (≈ 41.9 µM)

Question: For `COc1cc2c(cc1OC)[C@@]1(C)CCCC(C)(C)[C@@H]1CC2`, which IC50 (A549; [1]) is on record?
Answer: The IC50 was 41.7 µg/mL (≈ 145 µM).

Question: What about the IC50 (CNE; [2]) of the same molecule?
Answer: The IC50 was 25.1 µg/mL (≈ 87 µM).

Question: What about the IC50 (MCF7; [3]) of the same molecule?
Answer: Its IC50 is 39.5 µg/mL (≈ 137 µM).

Question: What about the IC50 (HeLa; [4]) of the same molecule?
Answer: The IC50 was 41.5 µg/mL (≈ 144 µM).

Question: What does the source list for `COc1cc2c(cc1OC)[C@@]1(C)CCCC(C)(C)[C@H]1C(=O)C2=O`?
Answer: IC50 (A549; [1]): 33.8 µg/mL (≈ 107 µM); IC50 (CNE; [2]): 5.6 µg/mL (≈ 17.7 µM); IC50 (MCF7; [3]): 16.5 µg/mL (≈ 52.1 µM); IC50 (HeLa; [4]): 16.1 µg/mL (≈ 50.9 µM)

Question: Which results are given for `CC1(C)CCC[C@]2(C)c3cc(OCc4ccc(Cl)cc4)c(O)cc3CC[C@H]12`?
Answer: IC50 (A549; [1]): 46.9 µg/mL (≈ 122 µM); IC50 (CNE; [2]): 27.2 µg/mL (≈ 70.7 µM); IC50 (MCF7; [3]): > 50 µg/mL; IC50 (HeLa; [4]): 42.2 µg/mL (≈ 110 µM)

Question: `CC1(C)CCC[C@]2(C)c3cc(O)c(O)cc3C(=O)C(=O)[C@H]12` was tested. Which IC50 (A549; [1]) did it give?
Answer: The IC50 was 25.8 µg/mL (≈ 89.5 µM).

Question: What about the IC50 (CNE; [2]) of the same molecule?
Answer: The IC50 was 9.1 µg/mL (≈ 31.6 µM).

Question: What about the IC50 (MCF7; [3]) of the same molecule?
Answer: The IC50 was 24.8 µg/mL (≈ 86 µM).

Question: What about the IC50 (HeLa; [4]) of the same molecule?
Answer: Its IC50 is 18 µg/mL (≈ 62.4 µM).

Question: `COc1cc2c(cc1OC)[C@@]1(C)CCCC(C)(C)[C@@H]1CC2=O` was tested. Which IC50 (A549; [1]) did it give?
Answer: Its IC50 is greater than 50 µg/mL.

Question: What about the IC50 (CNE; [2]) of the same molecule?
Answer: Its IC50 is greater than 50 µg/mL.

Question: And the IC50 (MCF7; [3])?
Answer: The IC50 was greater than 50 µg/mL.

Question: What about the IC50 (HeLa; [4]) of the same molecule?
Answer: Its IC50 is 25.7 µg/mL (≈ 85 µM).

Question: What does the source list for `CC1(C)CCC[C@]2(C)c3cc(O)c(O)cc3C(=O)C[C@@H]12`?
Answer: IC50 (A549; [1]): > 50 µg/mL; IC50 (CNE; [2]): 22.1 µg/mL (≈ 80.6 µM); IC50 (MCF7; [3]): > 50 µg/mL; IC50 (HeLa; [4]): 27.7 µg/mL (≈ 101 µM)

Question: With `CC1(C)CCC[C@]2(C)c3cc(OCc4ccc(Cl)cc4)c(O)cc3CC[C@@H]12` as the molecule, how does the IC50 (A549; [1]) read?
Answer: Its IC50 is greater than 50 µg/mL.

Question: And the IC50 (CNE; [2])?
Answer: The IC50 was greater than 50 µg/mL.

Question: What about the IC50 (MCF7; [3]) of the same molecule?
Answer: The IC50 was greater than 50 µg/mL.

Question: What about the IC50 (HeLa; [4]) of the same molecule?
Answer: The IC50 was greater than 50 µg/mL.

Question: How did the IC50 (A549; [1]) turn out when `COc1cc2c(cc1OC)[C@@]1(C)CCCC(C)(C)[C@H]1CC2` was run?
Answer: Its IC50 is 9.6 µg/mL (≈ 33.3 µM).

Question: What about the IC50 (CNE; [2]) of the same molecule?
Answer: Its IC50 is 4.5 µg/mL (≈ 15.6 µM).

Question: What about the IC50 (MCF7; [3]) of the same molecule?
Answer: Its IC50 is 10.9 µg/mL (≈ 37.8 µM).

Question: And the IC50 (HeLa; [4])?
Answer: Its IC50 is 13.2 µg/mL (≈ 45.8 µM).

Question: Which IC50 (A549; [1]) does the source give for `CC1(C)CCC[C@]2(C)c3cc(O)c(OCc4ccc(Cl)cc4)cc3CC[C@@H]12` here?
Answer: The IC50 was greater than 50 µg/mL.

Question: What about the IC50 (CNE; [2]) of the same molecule?
Answer: Its IC50 is greater than 50 µg/mL.

Question: What about the IC50 (MCF7; [3]) of the same molecule?
Answer: Its IC50 is greater than 50 µg/mL.

Question: And the IC50 (HeLa; [4])?
Answer: Its IC50 is greater than 50 µg/mL.

Question: How did the IC50 (A549; [1]) turn out when `CC1(C)CCC[C@]2(C)c3cc(O)c(OCc4ccccc4F)cc3CC[C@@H]12` was run?
Answer: Its IC50 is greater than 50 µg/mL.

Question: And the IC50 (CNE; [2])?
Answer: The IC50 was greater than 50 µg/mL.

Question: And the IC50 (MCF7; [3])?
Answer: The IC50 was greater than 50 µg/mL.

Question: And the IC50 (HeLa; [4])?
Answer: Its IC50 is greater than 50 µg/mL.

Question: For `CC1(C)CCC[C@]2(C)c3cc(O)c(OCc4cccc([N+](=O)[O-])c4)cc3CC[C@@H]12`, which IC50 (A549; [1]) is on record?
Answer: The IC50 was greater than 50 µg/mL.

Question: What about the IC50 (CNE; [2]) of the same molecule?
Answer: The IC50 was greater than 50 µg/mL.

Question: What about the IC50 (MCF7; [3]) of the same molecule?
Answer: Its IC50 is greater than 50 µg/mL.

Question: What about the IC50 (HeLa; [4]) of the same molecule?
Answer: The IC50 was greater than 50 µg/mL.

Question: `CC1(C)CCC[C@]2(C)c3cc(O)c(OCc4ccccc4F)cc3CC[C@H]12` was tested. Which IC50 (A549; [1]) did it give?
Answer: The IC50 was 35 µg/mL (≈ 95 µM).

Question: And the IC50 (CNE; [2])?
Answer: Its IC50 is 17.8 µg/mL (≈ 48.3 µM).

Question: And the IC50 (MCF7; [3])?
Answer: Its IC50 is 42.9 µg/mL (≈ 116 µM).

Question: And the IC50 (HeLa; [4])?
Answer: The IC50 was 13.4 µg/mL (≈ 36.4 µM).

Question: With `CC1(C)CCC[C@]2(C)c3cc(O)c(O)cc3C(=O)C[C@H]12` as the molecule, how does the IC50 (A549; [1]) read?
Answer: Its IC50 is greater than 50 µg/mL.

Question: What about the IC50 (CNE; [2]) of the same molecule?
Answer: Its IC50 is 13.5 µg/mL (≈ 49.2 µM).

Question: And the IC50 (MCF7; [3])?
Answer: The IC50 was 36.2 µg/mL (≈ 132 µM).

Question: What about the IC50 (HeLa; [4]) of the same molecule?
Answer: The IC50 was 17.6 µg/mL (≈ 64.1 µM).

Question: For `CC1(C)CCC[C@]2(C)c3cc(OCc4cccc([N+](=O)[O-])c4)c(O)cc3CC[C@H]12`, which IC50 (A549; [1]) is on record?
Answer: The IC50 was 36.4 µg/mL (≈ 92 µM).

Question: What about the IC50 (CNE; [2]) of the same molecule?
Answer: Its IC50 is 32.9 µg/mL (≈ 83.2 µM).

Question: And the IC50 (MCF7; [3])?
Answer: Its IC50 is greater than 50 µg/mL.

Question: What about the IC50 (HeLa; [4]) of the same molecule?
Answer: Its IC50 is greater than 50 µg/mL.

Question: `CC1(C)CCC[C@]2(C)c3cc(OCc4cccc([N+](=O)[O-])c4)c(O)cc3CC[C@@H]12` was tested. Which IC50 (A549; [1]) did it give?
Answer: The IC50 was greater than 50 µg/mL.

Question: And the IC50 (CNE; [2])?
Answer: Its IC50 is greater than 50 µg/mL.

Question: What about the IC50 (MCF7; [3]) of the same molecule?
Answer: Its IC50 is greater than 50 µg/mL.

Question: And the IC50 (HeLa; [4])?
Answer: The IC50 was greater than 50 µg/mL.

Question: For `CC1(C)CCC[C@]2(C)c3cc(O)c(O)cc3CC[C@@H]12` (stereo in doubt), which IC50 (A549; a549) is on record?
Answer: Its IC50 is 36.1 µg/mL (≈ 139 µM).

Question: What about the IC50 (CNE; cne) of the same molecule?
Answer: The IC50 was 12.1 µg/mL (≈ 46.5 µM).

Question: And the IC50 (MCF7; mcf7)?
Answer: The IC50 was 36.5 µg/mL (≈ 140 µM).

Question: And the IC50 (HeLa; hela)?
Answer: The IC50 was 42 µg/mL (≈ 161 µM).

Question: Which results are given for `CC1(C)CCC[C@]2(C)c3cc(O)c(O)cc3CC[C@@H]12` (stereo in doubt; 1)?
Answer: IC50 (A549; [1]): 19.6 µg/mL (≈ 75.3 µM); IC50 (CNE; cne): 25.1 µg/mL (≈ 96.4 µM); IC50 (MCF7; [3]): 41.2 µg/mL (≈ 158 µM); IC50 (HeLa; [4]): 24.3 µg/mL (≈ 93.3 µM)

Question: CISPLATIN was tested. Which IC50 (A549; a549) did it give?
Answer: Its IC50 is 3.58 µg/mL.

Question: And the IC50 (CNE; cne)?
Answer: The IC50 was 2.34 µg/mL.

Question: And the IC50 (MCF7; mcf7)?
Answer: The IC50 was 6.53 µg/mL.

Question: And the IC50 (HeLa; hela)?
Answer: Its IC50 is 5.89 µg/mL.
